Assay results from patent US20070128217A1 (priority 2003, published 2007).

Assays:
[1] = system: antibodies in sera from SARS patients (sera 1a, 1b, 2, 6, 37, 62, London, SARS-yellow, SARS-green); assay type: binding, human; parameters: Binding of serum 6 to linear peptides of protein X1 of SARS-CoV Urbani / Binding of serum 37 to linear peptides of protein X1 of SARS-CoV Urbani / Binding of serum 6 to looped/cyclic peptide (PEPSCAN-ELISA) / Binding of serum 37 to looped/cyclic peptide (PEPSCAN-ELISA) / Binding of serum 37 to looped/cyclic peptides of protein X1 of SARS-CoV Urbani / Binding of serum 6 to linear peptides of protein X2 / Binding of serum 37 to linear peptides of protein X2 / Binding of serum 37 to looped/cyclic peptides of protein X2 of SARS-CoV Urbani / Binding of serum 6 to linear peptides of protein M of SARS-CoV Urbani / Binding of serum 37 to linear peptides of protein M of SARS-CoV Urbani / Binding of serum 6 to looped/cyclic peptides of protein M of SARS-CoV Urbani / Binding of serum 37 to looped/cyclic peptides of protein M of SARS-CoV Urbani / Binding of serum 6 to linear peptides of protein X3 of SARS-CoV Urbani / Binding of serum 37 to linear peptides of protein X3 of SARS-CoV Urbani / Binding of serum 37 to looped/cyclic peptides of protein X3 of SARS-CoV Urbani / Binding of serum 6 to linear peptides of protein X4 of SARS-CoV Urbani / Binding of serum 37 to linear peptides of protein X4 of SARS-CoV Urbani / Binding of serum 37 to looped/cyclic peptides of protein X4 of SARS-CoV Urbani / Binding of serum 6 to linear peptides of protein X5 of SARS-CoV Urbani / Binding of serum 37 to linear peptides of protein X5 of SARS-CoV Urbani / Binding of serum 37 to looped/cyclic peptides of protein X5 of SARS-CoV Urbani / Binding of serum 6 to linear peptides of protein N of SARS-CoV Urbani / Binding of serum 37 to linear peptides of protein N of SARS-CoV Urbani / Binding of serum 6 to linear peptide (PEPSCAN-ELISA) / Binding of serum 1a to looped/cyclic peptides of protein N of SARS-CoV Urbani / Binding of serum 1b to looped/cyclic peptides of protein N of SARS-CoV Urbani / Binding of serum 2 to looped/cyclic peptides of protein N of SARS-CoV Urbani / Binding of serum 6 to looped/cyclic peptides of protein N of SARS-CoV Urbani / Binding of serum 37 to looped/cyclic peptides of protein N of SARS-CoV Urbani / Binding of serum 62 to looped/cyclic peptides of protein N of SARS-CoV Urbani / Binding of serum London to looped/cyclic peptides of protein N of SARS-CoV Urbani / Binding of serum SARS-green to looped/cyclic peptides of protein N of SARS-CoV Urbani: unit not given here
[2] = system: control sera (pooled serum of ten healthy LUMC hospital workers; commercial negative donor pooled serum from the Dutch bloodbank); assay type: binding, human; parameters: Binding of Control serum LUMC to linear peptides / Binding of Control serum Blood-bank to linear peptides / Binding of Control serum LUMC to looped peptides / Binding of Control Serum Blood-Bank to Looped peptides / Binding of Control serum LUMC to linear peptides of the protein M of SARS-CoV Urbani / Binding of Control serum Blood-bank to linear peptides of the protein M of SARS-CoV Urbani / Binding of Control serum LUMC to looped peptides of the protein M of SARS-CoV Urbani / Binding of Control Serum Blood-Bank to Looped peptides of the protein M of SARS-CoV Urbani: unit not given here
[3] = system: rabbit serum obtained by immunizing a rabbit with the SARS-CoV strain Frankfurt 1; assay type: binding; parameters: Binding of a rabbit serum to linear peptides / Binding of a rabbit serum to looped peptides / Rabbit serum linear peptides / Rabbit serum looped peptides / Binding of a rabbit serum to linear peptides of protein N of SARS-CoV Urbani (Rabbit serum linear peptides) / Binding of a rabbit serum to looped/cyclic peptides of protein N of SARS-CoV Urbani (Rabbit serum looped peptides): unit not given here

How did the “Binding of serum 1a to linear peptides of protein M of SARS-CoV Urbani” value [1] turn out when DIKDLPKEITVATSR was run?
Its value is 0.7.

What about the “Binding of serum 1a to looped/cyclic peptides of protein M of SARS-CoV Urbani” value [1] of the same sequence?
The value was 0.6.

What about the “Binding of serum 1b to linear peptides of protein M of SARS-CoV Urbani” value [1] of the same sequence?
Its value is 0.5.

And the “Binding of serum 1b to looped/cyclic peptides of protein M of SARS-CoV Urbani” value [1]?
The value was 0.6.

And the “Binding of serum 2 to linear peptides of protein M of SARS-CoV Urbani” value [1]?
Its value is 0.5.

And the “Binding of serum 2 to looped/cyclic peptides of protein M of SARS-CoV Urbani” value [1]?
The value was 0.7.

And the “Binding of serum 6 to linear peptides of protein M of SARS-CoV Urbani” value [1]?
The value was 0.5.

And the “Binding of serum 6 to looped/cyclic peptides of protein M of SARS-CoV Urbani” value [1]?
Its value is 0.8.

And the “Binding of serum 37 to linear peptides of protein M of SARS-CoV Urbani” value [1]?
The value was 0.6.

And the “Binding of serum 37 to looped/cyclic peptides of protein M of SARS-CoV Urbani” value [1]?
The value was 0.9.

And the “Binding of serum 62 to linear peptides of protein M of SARS-CoV Urbani” value [1]?
Its value is 0.5.

And the “Binding of serum 62 to looped/cyclic peptides of protein M of SARS-CoV Urbani” value [1]?
Its value is 0.7.

What about the “Binding of serum London to linear peptides of protein M of SARS-CoV Urbani” value [1] of the same sequence?
Its value is 0.4.

What about the “Binding of serum London to looped/cyclic peptides of protein M of SARS-CoV Urbani” value [1] of the same sequence?
Its value is 0.3.

What about the “Binding of serum SARS-green to linear peptides of protein M of SARS-CoV Urbani” value [1] of the same sequence?
The value was 0.5.

What about the “Binding of serum SARS-green to looped/cyclic peptides of protein M of SARS-CoV Urbani” value [1] of the same sequence?
The value was 0.4.

What about the “Binding of serum SARS-yellow to linear peptides of protein M of SARS-CoV Urbani” value [1] of the same sequence?
Its value is 0.2.

And the “Binding of serum SARS-yellow to looped/cyclic peptides of protein M of SARS-CoV Urbani” value [1]?
The value was 0.7.

What about the “Binding of Control Serum Blood-Bank to Looped peptides of the protein M of SARS-CoV Urbani” value [2] of the same sequence?
Its value is 0.8.

What about the “Binding of Control serum Blood-bank to linear peptides of the protein M of SARS-CoV Urbani” value [2] of the same sequence?
The value was 0.6.

And the “Binding of Control serum LUMC to linear peptides of the protein M of SARS-CoV Urbani” value [2]?
Its value is 0.5.

What about the “Binding of Control serum LUMC to looped peptides of the protein M of SARS-CoV Urbani” value [2] of the same sequence?
Its value is 0.9.

And the “Rabbit serum linear peptides” value [3]?
The value was 0.2.

What about the “Rabbit serum looped peptides” value [3] of the same sequence?
Its value is 0.3.

What does the source list for DLPKEITVATSRTLS?
Binding of serum 1a to linear peptides of protein M of SARS-CoV Urbani [1]: 0.7; Binding of serum 1a to looped/cyclic peptides of protein M of SARS-CoV Urbani [1]: 0.5; Binding of serum 1b to linear peptides of protein M of SARS-CoV Urbani [1]: 0.2; Binding of serum 1b to looped/cyclic peptides of protein M of SARS-CoV Urbani [1]: 0.5; Binding of serum 2 to linear peptides of protein M of SARS-CoV Urbani [1]: 0.7; Binding of serum 2 to looped/cyclic peptides of protein M of SARS-CoV Urbani [1]: 0.6; Binding of serum 6 to linear peptides of protein M of SARS-CoV Urbani [1]: 0.2; Binding of serum 6 to looped/cyclic peptides of protein M of SARS-CoV Urbani [1]: 0.8; Binding of serum 37 to linear peptides of protein M of SARS-CoV Urbani [1]: 0.5; Binding of serum 37 to looped/cyclic peptides of protein M of SARS-CoV Urbani [1]: 0.7; Binding of serum 62 to linear peptides of protein M of SARS-CoV Urbani [1]: 0.7; Binding of serum 62 to looped/cyclic peptides of protein M of SARS-CoV Urbani [1]: 0.6; Binding of serum London to linear peptides of protein M of SARS-CoV Urbani [1]: 0.3; Binding of serum London to looped/cyclic peptides of protein M of SARS-CoV Urbani [1]: 0.4; Binding of serum SARS-green to linear peptides of protein M of SARS-CoV Urbani [1]: 0.3; Binding of serum SARS-green to looped/cyclic peptides of protein M of SARS-CoV Urbani [1]: 0.4; Binding of serum SARS-yellow to linear peptides of protein M of SARS-CoV Urbani [1]: 0.0; Binding of serum SARS-yellow to looped/cyclic peptides of protein M of SARS-CoV Urbani [1]: 0.7; Binding of Control Serum Blood-Bank to Looped peptides of the protein M of SARS-CoV Urbani [2]: 0.7; Binding of Control serum Blood-bank to linear peptides of the protein M of SARS-CoV Urbani [2]: 0.5; Binding of Control serum LUMC to linear peptides of the protein M of SARS-CoV Urbani [2]: 0.2; Binding of Control serum LUMC to looped peptides of the protein M of SARS-CoV Urbani [2]: 0.7; Rabbit serum linear peptides [3]: 0.1; Rabbit serum looped peptides [3]: 0.3
